Data on 20 compounds can be found in BindingDB's records for doi:10.1016/s0960-894x(00)00535-7 (Kyoto University, 2000).

Molecules are shown by their SMILES. Where a SMILES comes first, the peptide text is derived from it. Bridges are numbered along the chain shown (N, C = ends). [ ]: non-standard residue; d: D form. 2Nal = N[C@@H](Cc1ccc2ccccc2c1)C(=O)O; Cit = NC(=O)NCCC[C@H](N)C(=O)O

This assay is described as follows: Inhibition of HIV-induced cytopathogenicity in MT-4 cell. For orientation: Cytopathic effects are the visible damage that an infection or toxin causes in cultured cells.
As usually defined, the EC50 is the concentration needed to bring the measured effect to its halfway point. As to `NCCCC[C@@H]1NC(=O)[C@H](CCCNC(N)=O)NC(=O)[C@H](Cc2ccc(O)cc2)NC(=O)[C@@H](NC(=O)[C@H](Cc2ccc3ccccc3c2)NC(=O)[C@H](CCCN=C(N)N)NC(=O)[C@@H](N)CCCN=C(N)N)CSSC[C@@H](C(=O)N[C@@H](CCCN=C(N)N)C(=O)O)NC(=O)[C@H](CCCNC(N)=O)NC(=O)[C@H](CCCN=C(N)N)NC(=O)[C@H](Cc2ccc(O)cc2)NC(=O)[C@@H]2CCCN2C(=O)[C@@H](CCCCN)NC1=O`, the EC50 came to 0.0028 µM.
`C[C@@H]1NC(=O)[C@H](Cc2ccc(O)cc2)NC(=O)[C@@H](NC(=O)[C@H](Cc2ccc3ccccc3c2)NC(=O)[C@H](CCCN=C(N)N)NC(=O)[C@@H](N)CCCN=C(N)N)CSSC[C@@H](C(=O)N[C@@H](CCCN=C(N)N)C(=O)O)NC(=O)[C@H](CCCNC(N)=O)NC(=O)[C@H](CCCN=C(N)N)NC(=O)[C@H](Cc2ccc(O)cc2)NC(=O)[C@@H]2CCCN2C(=O)[C@@H](CCCCN)NC(=O)[C@H](CCCCN)NC1=O` [TC-14002] came in with an EC50 of 0.0093 µM.
To `NCCCC[C@H]1NC(=O)[C@H](CCCNC(N)=O)NC(=O)[C@H](CCCN=C(N)N)NC(=O)[C@H](Cc2ccc(O)cc2)NC(=O)[C@@H](NC(=O)[C@H](Cc2ccc3ccccc3c2)NC(=O)[C@H](CCCN=C(N)N)NC(=O)[C@@H](N)CCCN=C(N)N)CSSC[C@@H](C(=O)N[C@@H](CCCN=C(N)N)C(=O)O)NC(=O)[C@H](CCCNC(N)=O)NC(=O)[C@H](CCCN=C(N)N)NC(=O)[C@H](Cc2ccc(O)cc2)NC(=O)[C@@H]2CCCN2C1=O` belongs 0.016 µM; to `NCCCC[C@@H]1NC(=O)[C@H](CCCN=C(N)N)NC(=O)[C@H](Cc2ccc(O)cc2)NC(=O)[C@@H](NC(=O)[C@H](Cc2c[nH]c3ccccc23)NC(=O)[C@H](CCCN=C(N)N)NC(=O)[C@@H](N)CCCN=C(N)N)CSSC[C@@H](C(=O)N[C@@H](CCCN=C(N)N)C(=O)O)NC(=O)[C@H](CCCNC(N)=O)NC(=O)[C@H](CCCN=C(N)N)NC(=O)[C@H](Cc2ccc(O)cc2)NC(=O)[C@@H]2CCCN2C(=O)[C@@H](CCCCN)NC1=O`, 0.0083 µM.
Next, `C[C@H]1NC(=O)[C@H](CCCCN)NC(=O)[C@H](CCCN=C(N)N)NC(=O)[C@H](Cc2ccc(O)cc2)NC(=O)[C@@H](NC(=O)[C@H](Cc2ccc3ccccc3c2)NC(=O)[C@H](CCCN=C(N)N)NC(=O)[C@@H](N)CCCN=C(N)N)CSSC[C@@H](C(=O)N[C@@H](CCCN=C(N)N)C(=O)O)NC(=O)[C@H](CCCNC(N)=O)NC(=O)[C@H](CCCN=C(N)N)NC(=O)[C@H](Cc2ccc(O)cc2)NC(=O)[C@@H]2CCCN2C1=O`: 0.016 µM.
To `NCCCC[C@@H]1NC(=O)[C@H](CCCN=C(N)N)NC(=O)[C@H](Cc2ccc(O)cc2)NC(=O)[C@@H](NC(=O)[C@H](Cc2ccc3ccccc3c2)NC(=O)[C@H](CCCN=C(N)N)NC(=O)[C@@H](N)CCCN=C(N)N)CSSC[C@@H](C(=O)N[C@@H](CCCNC(N)=O)C(=O)O)NC(=O)[C@H](CCCNC(N)=O)NC(=O)[C@H](CCCN=C(N)N)NC(=O)[C@H](Cc2ccc(O)cc2)NC(=O)[C@@H]2CCCN2C(=O)[C@@H](CCCCN)NC1=O` [TC-14006] belongs 0.88 µM; to `NCCCC[C@@H]1NC(=O)[C@H](CCCN=C(N)N)NC(=O)[C@H](Cc2ccc(O)cc2)NC(=O)[C@@H](NC(=O)[C@H](Cc2ccc3ccccc3c2)NC(=O)[C@H](CCCN=C(N)N)NC(=O)[C@@H](N)CCCN=C(N)N)CSSC[C@@H](C(=O)N[C@@H](CCCN=C(N)N)C(=O)O)NC(=O)[C@H](CCCNC(N)=O)NC(=O)[C@H](CCCNC(N)=O)NC(=O)[C@H](Cc2ccc(O)cc2)NC(=O)[C@@H]2CCCN2C(=O)[C@@H](CCCCN)NC1=O` [TC-14003], 0.015 µM; to `CC(N)C(=O)N[C@@H](CCCN=C(N)N)C(=O)N[C@@H](Cc1ccc2ccccc2c1)C(=O)N[C@H]1CSSC[C@@H](C(=O)N[C@@H](CCCN=C(N)N)C(=O)O)NC(=O)[C@H](CCCNC(N)=O)NC(=O)[C@H](CCCN=C(N)N)NC(=O)[C@H](Cc2ccc(O)cc2)NC(=O)[C@@H]2CCCN2C(=O)[C@@H](CCCCN)NC(=O)[C@H](CCCCN)NC(=O)[C@H](CCCN=C(N)N)NC(=O)[C@H](Cc2ccc(O)cc2)NC1=O` (stereo not given in full), 0.056 µM.
The compound `C[C@@H]1NC(=O)[C@@H]2CCCN2C(=O)[C@@H](CCCCN)NC(=O)[C@H](CCCCN)NC(=O)[C@H](CCCN=C(N)N)NC(=O)[C@H](Cc2ccc(O)cc2)NC(=O)[C@@H](NC(=O)[C@H](Cc2ccc3ccccc3c2)NC(=O)[C@H](CCCN=C(N)N)NC(=O)[C@@H](N)CCCN=C(N)N)CSSC[C@@H](C(=O)N[C@@H](CCCN=C(N)N)C(=O)O)NC(=O)[C@H](CCCNC(N)=O)NC(=O)[C@H](CCCN=C(N)N)NC1=O` displayed an EC50 of 0.017 µM.
To `C[C@H](NC(=O)[C@@H]1CSSC[C@H](NC(=O)[C@H](Cc2ccc3ccccc3c2)NC(=O)[C@H](CCCN=C(N)N)NC(=O)[C@@H](N)CCCN=C(N)N)C(=O)N[C@@H](Cc2ccc(O)cc2)C(=O)N[C@@H](CCCN=C(N)N)C(=O)N[C@@H](CCCCN)C(=O)N[C@H](CCCCN)C(=O)N2CCC[C@H]2C(=O)N[C@@H](Cc2ccc(O)cc2)C(=O)N[C@@H](CCCN=C(N)N)C(=O)N[C@@H](CCCNC(N)=O)C(=O)N1)C(=O)O` belongs 0.4 µM; to `C[C@H](NC(=O)[C@H](CCCN=C(N)N)NC(=O)[C@@H](N)CCCN=C(N)N)C(=O)N[C@H]1CSSC[C@@H](C(=O)N[C@@H](CCCN=C(N)N)C(=O)O)NC(=O)[C@H](CCCNC(N)=O)NC(=O)[C@H](CCCN=C(N)N)NC(=O)[C@H](Cc2ccc(O)cc2)NC(=O)[C@@H]2CCCN2C(=O)[C@@H](CCCCN)NC(=O)[C@H](CCCCN)NC(=O)[C@H](CCCN=C(N)N)NC(=O)[C@H](Cc2ccc(O)cc2)NC1=O`, 2.5 µM.
Next, `C[C@H](NC(=O)[C@@H](N)CCCN=C(N)N)C(=O)N[C@@H](Cc1ccc2ccccc2c1)C(=O)N[C@H]1CSSC[C@@H](C(=O)N[C@@H](CCCN=C(N)N)C(=O)O)NC(=O)[C@H](CCCNC(N)=O)NC(=O)[C@H](CCCN=C(N)N)NC(=O)[C@H](Cc2ccc(O)cc2)NC(=O)[C@@H]2CCCN2C(=O)[C@@H](CCCCN)NC(=O)[C@H](CCCCN)NC(=O)[C@H](CCCN=C(N)N)NC(=O)[C@H](Cc2ccc(O)cc2)NC1=O` [TC-14001]: 1.3 µM; `NCCCC[C@@H]1NC(=O)[C@H](CCCN=C(N)N)NC(=O)[C@H](Cc2ccc(O)cc2)NC(=O)[C@@H](NC(=O)[C@H](Cc2ccc3ccccc3c2)NC(=O)[C@H](CCCN=C(N)N)NC(=O)[C@@H](N)CCCN=C(N)N)CSSC[C@@H](C(=O)N[C@@H](CCCN=C(N)N)C(=O)O)NC(=O)[C@H](CCCNC(N)=O)NC(=O)[C@H](CCCN=C(N)N)NC(=O)[C@H](Cc2ccc(O)cc2)NC(=O)[C@@H]2CCCN2C(=O)[C@@H](CCCCN)NC1=O` (H-RR[2Nal]CYRK[dK]PYR[Cit]CR-OH; disulfide 4-13): 0.0033 µM.
As for `C[C@@H]1NC(=O)[C@H](CCCN=C(N)N)NC(=O)[C@H](Cc2ccc(O)cc2)NC(=O)[C@@H]2CCCN2C(=O)[C@@H](CCCCN)NC(=O)[C@H](CCCCN)NC(=O)[C@H](CCCN=C(N)N)NC(=O)[C@H](Cc2ccc(O)cc2)NC(=O)[C@@H](NC(=O)[C@H](Cc2ccc3ccccc3c2)NC(=O)[C@H](CCCN=C(N)N)NC(=O)[C@@H](N)CCCN=C(N)N)CSSC[C@@H](C(=O)N[C@@H](CCCN=C(N)N)C(=O)O)NC1=O`, the EC50 was 0.016 µM.
Next, `NCCCC[C@@H]1NC(=O)[C@H](CCCN=C(N)N)NC(=O)[C@H](Cc2ccc(O)cc2)NC(=O)[C@@H](NC(=O)[C@H](Cc2ccc3ccccc3c2)NC(=O)[C@H](CCCNC(N)=O)NC(=O)[C@@H](N)CCCN=C(N)N)CSSC[C@@H](C(=O)N[C@@H](CCCN=C(N)N)C(=O)O)NC(=O)[C@H](CCCNC(N)=O)NC(=O)[C@H](CCCN=C(N)N)NC(=O)[C@H](Cc2ccc(O)cc2)NC(=O)[C@@H]2CCCN2C(=O)[C@@H](CCCCN)NC1=O`: 0.45 µM; `C[C@@H]1NC(=O)[C@@H](CCCCN)NC(=O)[C@H](CCCCN)NC(=O)[C@H](CCCN=C(N)N)NC(=O)[C@H](Cc2ccc(O)cc2)NC(=O)[C@@H](NC(=O)[C@H](Cc2ccc3ccccc3c2)NC(=O)[C@H](CCCN=C(N)N)NC(=O)[C@@H](N)CCCN=C(N)N)CSSC[C@@H](C(=O)N[C@@H](CCCN=C(N)N)C(=O)O)NC(=O)[C@H](CCCNC(N)=O)NC(=O)[C@H](CCCN=C(N)N)NC(=O)[C@H](Cc2ccc(O)cc2)NC1=O` (H-RR[2Nal]CYRK[dK]AYR[Cit]CR-OH; disulfide 4-13): 0.017 µM; `C[C@@H]1NC(=O)[C@H](Cc2ccc(O)cc2)NC(=O)[C@@H]2CCCN2C(=O)[C@@H](CCCCN)NC(=O)[C@H](CCCCN)NC(=O)[C@H](CCCN=C(N)N)NC(=O)[C@H](Cc2ccc(O)cc2)NC(=O)[C@@H](NC(=O)[C@H](Cc2ccc3ccccc3c2)NC(=O)[C@H](CCCN=C(N)N)NC(=O)[C@@H](N)CCCN=C(N)N)CSSC[C@@H](C(=O)N[C@@H](CCCN=C(N)N)C(=O)O)NC(=O)[C@H](CCCNC(N)=O)NC1=O` [TC-14007]: 0.018 µM.
With `C[C@@H]1NC(=O)[C@H](CCCN=C(N)N)NC(=O)[C@H](Cc2ccc(O)cc2)NC(=O)[C@@H](NC(=O)[C@H](Cc2ccc3ccccc3c2)NC(=O)[C@H](CCCN=C(N)N)NC(=O)[C@@H](N)CCCN=C(N)N)CSSC[C@@H](C(=O)N[C@@H](CCCN=C(N)N)C(=O)O)NC(=O)[C@H](CCCNC(N)=O)NC(=O)[C@H](CCCN=C(N)N)NC(=O)[C@H](Cc2ccc(O)cc2)NC(=O)[C@@H]2CCCN2C(=O)[C@@H](CCCCN)NC1=O`, the EC50 was determined as 0.047 µM.
Next, `C[C@@H]1NC(=O)[C@@H](NC(=O)[C@H](Cc2ccc3ccccc3c2)NC(=O)[C@H](CCCN=C(N)N)NC(=O)[C@@H](N)CCCN=C(N)N)CSSC[C@@H](C(=O)N[C@@H](CCCN=C(N)N)C(=O)O)NC(=O)[C@H](CCCNC(N)=O)NC(=O)[C@H](CCCN=C(N)N)NC(=O)[C@H](Cc2ccc(O)cc2)NC(=O)[C@@H]2CCCN2C(=O)[C@@H](CCCCN)NC(=O)[C@H](CCCCN)NC(=O)[C@H](CCCN=C(N)N)NC1=O` [TC-14005]: 0.36 µM.
To `NCCCC[C@@H]1NC(=O)[C@H](CCCN=C(N)N)NC(=O)[C@H](Cc2ccc(O)cc2)NC(=O)[C@@H](NC(=O)[C@H](Cc2ccc3ccccc3c2)NC(=O)[C@H](CCCN=C(N)N)NC(=O)[C@@H](N)CCCN=C(N)N)CSSC[C@@H](C(=O)N[C@@H](CCCN=C(N)N)C(=O)O)NC(=O)[C@H](CCCNC(N)=O)NC(=O)[C@H](CCCN=C(N)N)NC(=O)[C@H](Cc2ccc(O)cc2)NC(=O)[C@@H]2CCCN2C(=O)[C@@H](CCCNC(N)=O)NC1=O` [TC-14004] belongs 0.004 µM.
